The record followed here is US9149465B2, “Isoxazolines as inhibitors of fatty acid amide hydrolase” (Infinity Pharmaceuticals, Inc., priority 2009, dated 2015).

For the experiment, the target named is T1, human FAAH (Homo sapiens, UniProt O00519).
T1 construct: host or cells: COS-7 cells, transient transfection; 13,000 g membrane fraction solubilised in 1% Triton X-100
T1 sequence (O00519 1-579): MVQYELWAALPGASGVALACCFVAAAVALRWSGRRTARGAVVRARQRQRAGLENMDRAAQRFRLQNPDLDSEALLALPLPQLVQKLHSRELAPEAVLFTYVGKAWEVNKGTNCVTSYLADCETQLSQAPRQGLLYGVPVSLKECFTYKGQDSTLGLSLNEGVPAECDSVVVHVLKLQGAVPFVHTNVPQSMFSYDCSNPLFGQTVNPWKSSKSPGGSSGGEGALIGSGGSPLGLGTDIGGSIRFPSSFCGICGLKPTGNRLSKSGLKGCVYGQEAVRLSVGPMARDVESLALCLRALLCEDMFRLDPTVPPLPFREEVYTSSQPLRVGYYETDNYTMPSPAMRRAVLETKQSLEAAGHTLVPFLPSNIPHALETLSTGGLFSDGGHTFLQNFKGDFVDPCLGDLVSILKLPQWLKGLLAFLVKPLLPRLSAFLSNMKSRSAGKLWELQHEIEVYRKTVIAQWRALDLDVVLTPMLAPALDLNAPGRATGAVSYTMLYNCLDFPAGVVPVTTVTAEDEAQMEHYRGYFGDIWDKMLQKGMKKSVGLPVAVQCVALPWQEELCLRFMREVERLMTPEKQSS
The experiment can be described thus: Inhibition of human FAAH (AMC arachidonoyl amide fluorescence assay). The note with it: inhibitor preincubated 30 minutes at room temperature; 20 μM AMC arachidonoyl amide; 4 hours; read-out: Activity (Ki, inhibitors of human FAAH). In kind it is biochemical. As to the method:
Human FAAH Preparation: COS-7 cells were split the day before, 1:5 into 150 mm x […] cell culture dishes (Corning Inc., Cat. No. 430599). Transient transfection took place at 30-40% confluency according to FuGENE 6 Transfection Reagent (Roche, Cat. No. 11814 443 001).
Transfection Procedure: The FuGENE transfection 6 reagent (45 uL) was added to 1410 μL of media (DMEM, serum free without pen/strep) in a 15 mL conical tube and incubated at room temp for 5 minutes, followed by the addition of FAAH plasmid DNA (15 μg) (OriGene Cat. No. TC119221, Genbank Accession No. NM_001441.1, 0.67 ug/uL) and a further incubation of 15 minutes at room temperature. The resulting solution was added into one dish of 30-40% confluent COS-7 cells in a drop-wise manner. The COS-7 cell dish was subsequently incubated for 48 hours. The cells are then harvested.
Harvest procedure: Media was aspirated from the dishes and the cells rinsed with 10 mL PBS. The PBS was removed and 3 mL of PBS added to the dish. The dish was scraped to resuspend the cells, and the subsequent cell suspension collected into a 15 mL conical tube. The cells were pelleted by centrifugation at 1200 rpm for 5 minutes in a bench top centrifuge. PBS was removed and the cell pellet snap frozen in liquid nitrogen and stored at −80° C.
COS-7 cells —FAAH purification: • (1) Fractionation: Frozen cell pellets from transient transfections were thawed on ice and resuspended in 12.5 mM Hepes pH 8.0, 100 mM NaCl, 1 mM EDTA (10 mL/0.2 g cell pellet). The pellets were dounce homogenized and then sonicated to produce cell extract. The cell extract was subsequently centrifuged at 1000 g to remove cellular debris. The pellet was discarded and the supernatant centrifuged at 13,000 g for 20 minutes. The pellet contained membrane bound FAAH. The supernatant was discarded and the pellet resolubilized. • (2) Re-solubilization: The fraction of interest, (13,000 g, membrane fraction) was re-suspended in 2.3 mL re-suspension buffer (20 mM Hepes pH 7.8, 10% v/v Glycerol, 1 mM EDTA, 1% Triton X-100) and the sample incubated on ice for 1 hour and then centrifuged to remove any particulate matter. The supernatant containing solubilized human FAAH was aliquoted and snap frozen in liquid nitrogen and stored at −80° C. until use. • (3) Characterization: Protein Concentration determined by Bradford assay. • SDS gel and Western blot to confirm presence of FAAH • FAAH activity assay • Km determination-96-well assay • Linear dependence—96-well assay • Standard compound Ki determination—384-well assay
Human FAAH assay; Experimental Protocol: A 0.1 mg/mL Human FAAH solution was made up in FAAH reaction buffer, and 24 ul pipeted into a 384 well plate. To this was added 1 μL of a 3 fold serially diluted inhibitor from a DMSO stock solution. The FAAH solution and inhibitor were incubated for 30 minutes at room temperature. The FAAH reaction was initiated by the addition of 25 μL of 40 μM AMC Arachidonoyl Amide in FAAH reaction buffer, yielding a final reaction human FAAH preparation concentration of 0.05 mg/ml and AMC-Arachidonoyl substrate concentration of 20 μM, reaction volume 50 μL. The reaction was allowed to proceed for 4 hours at room temperature. The reaction was stopped by the addition of 25 μL 12 μM a-ketoheterocycle (Cayman Chemicals, catalogue #10435). The microtiter plate was read in the envision plate reader.
The raw fluorescence was plotted on the y axis and the inhibitor concentration on the x axis to give a dose response inhibition curve. The data was fitted to a single site competitive inhibition equation, fixing the Km for the human enzyme to 12 μM and 9 μM respectively.
As usually defined, the Ki is the equilibrium dissociation constant of an inhibitor or competing ligand from its target. Take `c1ccc(-c2ccc([C@H]3CC(Oc4cccnc4)=NO3)cc2)cc1` (racemic) [I-101]: the Ki is not above 100 nM. For `C[C@]1(c2ccc(-c3ccccc3)cc2)CC(Br)=NO1` (racemic) [I-102], the Ki is not above 100 nM. In the case of `c1ccc(-c2ccc([C@H]3CC(Oc4cncnc4)=NO3)cc2)cc1` (racemic) [I-103] it was not above 100 nM. In the case of `C[C@]1(c2ccc(-c3ccccc3)cc2)CC(Oc2cncnc2)=NO1` (racemic) [I-104] it was not above 100 nM. In the case of `COC(=O)CNC(=O)c1ccc(OC2=NOC(c3ccc(OC(F)(F)F)cc3)C2)cn1` (racemic) [I-105] it was not above 100 nM; in that of `O=C(O)CNC(=O)c1ccc(OC2=NOC(c3ccc(OC(F)(F)F)cc3)C2)cn1` (racemic) [I-106], not above 100 nM. Regarding `CNC(=O)c1ccc(OC2=NOC(c3ccc(OC(F)(F)F)cc3)C2)cn1` (racemic) [I-107], the Ki was not above 100 nM. Under `CN(C)C(=O)c1ccc(OC2=NOC(c3ccc(OC(F)(F)F)cc3)C2)cn1` (racemic) [I-108] stands 100 to 1000 nM; under `O=C(NCCO)c1ccc(OC2=NOC(c3ccc(OC(F)(F)F)cc3)C2)cn1` (racemic) [I-109], not above 100 nM. Consider `O=C(O)c1ccc(OC2=NOC(c3ccc(Oc4ccccc4)cc3)C2)cn1` (racemic) [I-110], for which the Ki was not above 100 nM. Consider `CN(C)C(=O)c1ccc(OC2=NOC(c3ccc(Oc4ccccc4)cc3)C2)cn1` (racemic) [I-111], for which the Ki was not above 100 nM. `FC(F)(F)Oc1ccc(C2CC(Oc3cncnc3)=NO2)cc1` (racemic) [I-112]: the Ki is not above 100 nM. Regarding `CC1(c2ccc(OC(F)(F)F)cc2)CC(Oc2ccc(C(=O)O)nc2)=NO1` (racemic) [I-113], the Ki is not above 100 nM. On to `CNC(=O)c1ccc(OC2=NOC(C)(c3ccc(OC(F)(F)F)cc3)C2)cn1` (racemic) [I-114], for which the inhibition constant Ki was not above 100 nM.

Regarding `CCNC(=O)c1ccc(OC2=NOC(C)(c3ccc(OC(F)(F)F)cc3)C2)cn1` (racemic) [I-115], the Ki was not above 100 nM. For the compound `CC1(c2ccc(OC(F)(F)F)cc2)CC(Oc2ccc(C(=O)NCC(F)(F)F)nc2)=NO1` (racemic) [I-116], the Ki was in the range of 100 to 1000 nM. Under `CC1(c2ccc(OC(F)(F)F)cc2)CC(Oc2ccc(C(=O)NO)nc2)=NO1` (racemic) [I-117] stands not above 100 nM. Under `NC(=O)CNC(=O)c1ccc(OC2=NOC(c3ccc(OC(F)(F)F)cc3)C2)cn1` (racemic) [I-118] stands 100 to 1000 nM; under `Fc1cccc(-c2ccc(C3CC(Oc4cncnc4)=NO3)c(F)c2)c1` (racemic) [I-119], not above 100 nM; under `Fc1cc([C@H]2CC(Br)=NO2)ccc1OC(F)(F)F` (racemic) [I-120], not above 100 nM. For `Fc1cc([C@H]2CC(Oc3cncnc3)=NO2)ccc1OC(F)(F)F` (racemic) [I-121], the Ki is not above 100 nM. Under `COC(=O)c1ccc(OC2=NO[C@@H](c3ccc(OC(F)(F)F)c(F)c3)C2)cn1` (racemic) [I-122] stands not above 100 nM.

Regarding `O=C(O)c1ccc(OC2=NO[C@@H](c3ccc(OC(F)(F)F)c(F)c3)C2)cn1` (racemic) [I-123], the Ki was not above 100 nM. As for `FC(F)(F)Oc1ccc([C@H]2CC(Br)=NO2)cc1Cl` (racemic) [I-124], the Ki is not above 100 nM.

As for `FC(F)(F)Oc1ccc(C2CC(Oc3cncnc3)=NO2)cc1Cl` (racemic) [I-125], the inhibitory constant (Ki) is not above 100 nM. In the case of `FC1(F)Oc2ccc(C3CC(Br)=NO3)cc2O1` (racemic) [I-126] it was not above 100 nM.

With `FC1(F)Oc2ccc([C@H]3CC(Oc4cncnc4)=NO3)cc2O1` (racemic) [I-127], the Ki is 100 to 1000 nM.

On to `O=C(O)CCc1ccc(OC2=NOC(c3ccc(OC(F)(F)F)cc3)C2)cn1` (racemic) [I-128], for which the Ki was not above 100 nM. Under `CC1(c2ccc(OC(F)(F)F)cc2)CC(Oc2cncnc2)=NO1` (racemic) [I-129] stands not above 100 nM; under `FC(F)(F)C1(c2ccc(Oc3ccccc3)cc2)CC(Br)=NO1` (racemic) [I-130], 100 to 1000 nM; under `FC(F)(F)C1(c2ccc(Oc3ccccc3)cc2)CC(Oc2cncnc2)=NO1` (racemic) [I-131], not above 100 nM.

On to `CSc1ncc(OC2=NOC(c3ccc(OC(F)(F)F)cc3)C2)cn1` (racemic) [I-132], for which the Ki lay within 100 to 1000 nM.

With `CS(=O)(=O)c1ncc(OC2=NOC(c3ccc(OC(F)(F)F)cc3)C2)cn1` (racemic) [I-133], the Ki is not above 100 nM. In the case of `CSc1ccc(OC2=NOC(c3ccc(OC(F)(F)F)cc3)C2)cn1` (racemic) [I-134] it was not above 100 nM; in that of `CS(=O)(=O)c1ccc(OC2=NOC(c3ccc(OC(F)(F)F)cc3)C2)cn1` (racemic) [I-135], not above 100 nM; in that of `COc1ncc(OC2=NOC(c3ccc(OC(F)(F)F)cc3)C2)cc1F` (racemic) [I-136], 100 to 1000 nM. Under `CCCCOc1ccc([C@H]2CC(Oc3ccc(C(=O)OC)nc3)=NO2)cc1` (racemic) [I-137] stands not above 100 nM. Consider `CCCCOc1ccc([C@H]2CC(Oc3ccc(C(=O)O)nc3)=NO2)cc1` (racemic) [I-138], for which the Ki was not above 100 nM. In the case of `CCCCOc1ccc([C@H]2CC(Oc3cncnc3)=NO2)cc1` (racemic) [I-139] it was not above 100 nM. Under `CC(C)Oc1ccc([C@H]2CC(Oc3ccc(C(=O)O)nc3)=NO2)cc1` (racemic) [I-140] stands not above 100 nM.

Regarding `CC(C)Oc1ccc([C@H]2CC(Oc3cncnc3)=NO2)cc1` (racemic) [I-141], the Ki was not above 100 nM. Take `C#CCOc1ccc([C@H]2CC(Br)=NO2)cc1` (racemic) [I-142]: the Ki is not above 100 nM.

On to `C#CCOc1ccc([C@H]2CC(Oc3cncnc3)=NO2)cc1` (racemic) [I-143], for which the Ki was in the range of 100 to 1000 nM. In the case of `C#CCOc1ccc([C@H]2CC(Oc3ccc(C(=O)OC)nc3)=NO2)cc1` (racemic) [I-144], the Ki is not above 100 nM. `C#CCOc1ccc([C@H]2CC(Oc3ccc(C(=O)O)nc3)=NO2)cc1` (racemic) [I-145]: the Ki is not above 100 nM. In the case of `O=C(O)c1cccc(OC2=NOC(c3ccc(Oc4ccccc4)cc3)C2)c1` (racemic) [I-146] it was 100 to 1000 nM; in that of `O=C(O)c1ccc(OC2=NOC(c3ccc(Oc4ccccc4)cc3)C2)cc1` (racemic) [I-147], not above 100 nM; in that of `BrC1=NO[C@@H](c2ccc(Br)cc2)C1` (racemic) [I-148], not above 100 nM. On to `COC(=O)c1ccc(OC2=NO[C@@H](c3ccc(Br)cc3)C2)cn1` (racemic) [I-149], for which the Ki was not above 100 nM.

Consider `O=C(O)c1ccc(OC2=NOC(c3ccc(Br)cc3)C2)cn1` (racemic) [I-150], for which the Ki was not above 100 nM. In the case of `COC(=O)c1cc(OC2=NOC(c3ccc(OC(F)(F)F)cc3)C2)ccn1` (racemic) [I-151] it was not above 100 nM.
